Assay results taken from patent US7957909B2, “Identification, monitoring and treatment of disease and characterization of biological condition using gene expression profiles” (Source Precision Medicine, Inc., priority 1999, dated 2011).

Columns and labels:
[1] = system: Inflammation Gene Expression Panel of Table 1; assay: Inflammation index of stable rheumatoid arthritis patients under three treatment regimens (FIGS. 21-23); assay type: in vivo, human; settings: for inflammation index compared to normal: 10 stable rheumatoid arthritis patients per treatment group
Description: (§1) FIG. 17A further illustrates the consistency of inflammatory gene expression, illustrated here with respect to 7 loci of (of the Inflammation Gene Expression Panel of Table 1), in a population of 44 normal, undiagnosed blood donors. For each individual locus is shown the range of values lying within ±2 standard deviations of the mean expression value, which corresponds to 95% of a normally distributed population. Notwithstanding the great width of the confidence interval (95%), the measured gene expression value (ΔCT)—remarkably—still lies within 10% of the mean, regardless of the expression level involved. As described in further detail below, for a given biological condition an index can be constructed to provide a measurement of the condition. This is possible as a result of the conjunction of two circumstances: (i) there is a remarkable consistency of Gene Expression Profiles with respect to a biological condition across a population and (ii) there can be employed procedures that provide substantially reproducible measurement of constituents in a Gene Expression Panel giving rise to a Gene Expression Profile, under measurement conditions wherein specificity and efficiencies of amplification for all constituents of the panel are substantially similar and which therefore provides a measurement of a biological condition. Accordingly, a function of the expression values of representative constituent loci of FIG. 17A is here used to generate an inflammation index value, which is normalized so that a reading of 1 corresponds to constituent expression values of healthy subjects, as shown in the right-hand portion of FIG. 17A.
This subject in fact was also on a regimen of an anti-inflammation steroid (prednisone) that was being tapered; within approximately one week after the inflammation index was sampled, the subject experienced a significant flare of clinical symptoms.

[2] = system: Inflammation Gene Expression Panel of Table 1; settings: studies have shown; some subjects; cited from earlier work
[3] = system: Inflammation Gene Expression Panel of Table 1; assay: Inflammation index of a single subject with inflammatory bowel disease treated with Remicade (FIG. 24); assay type: in vivo, human
Description: as §1
FIG. 24 illustrates use of the inflammation index for assessment of a single subject suffering from inflammatory bowel disease, for whom treatment with Remicade was initiated in three doses. […] Again, the index, besides providing a measure of biological condition, is here used to measure the effectiveness of therapy (Remicade), as well as to provide a target for therapeutic intervention in terms of both dose and schedule.

[4] = system: Inflammation Gene Expression Panel of Table 1; assay: Inflammatory gene expression in whole blood of a human subject after a single oral dose of prednisone (FIG. 14); assay type: in vivo
Description: (§2) For measuring the amount of a particular RNA in a sample, we have used methods known to one of ordinary skill in the art to extract and quantify transcribed RNA from a sample with respect to a constituent of a Gene Expression Panel. (See detailed protocols below. Also see PCT application publication number WO 98/24935 herein incorporated by reference for RNA analysis protocols). Briefly, RNA is extracted from a sample such as a tissue, body fluid, or culture medium in which a population of a subject might be growing. For example, cells may be lysed and RNA eluted in a suitable solution in which to conduct a DNAse reaction. First strand synthesis may be performed using a reverse transcriptase. Gene amplification, more specifically quantitative PCR assays, can then conducted and the gene of interest size calibrated against a marker such as 18S rRNA (Hirayama et al., Blood 92, 1998: 46-52). Samples are measured in multiple duplicates, for example, 4 replicates. Relative quantitation of the mRNA is determined by the difference in threshhold cycles between the internal control and the gene of interest. In an embodiment of the invention, quantitative PCR is performed using amplification, reporting agents and instruments such as those supplied commercially by Applied Biosystems (Foster City, Calif.). […]

[5] = system: 5 genes (of the Inflammation Gene Expression Panel of Table 1); assay: Gene expression in whole blood samples from a subject given prednisone, challenged with lipopolysaccharide (FIG. 15); assay type: in vivo, human; settings: blood challenged with 0.1 ng/ml lipopolysaccharide
Description: For measuring the amount of a particular RNA in a sample, we have used methods known to one of ordinary skill in the art to extract and quantify transcribed RNA from a sample with respect to a constituent of a Gene Expression Panel. (See detailed protocols below. Also see PCT application publication number WO 98/24935 herein incorporated by reference for RNA analysis protocols). Briefly, RNA is extracted from a sample such as a tissue, body fluid, or culture medium in which a population of a subject might be growing. For example, cells may be lysed and RNA eluted in a suitable solution in which to conduct a DNAse reaction. First strand synthesis may be performed using a reverse transcriptase. Gene amplification, more specifically quantitative PCR assays, can then conducted and the gene of interest size calibrated against a marker such as 18S rRNA (Hirayama et al., Blood 92, 1998: 46-52). Samples are measured in multiple duplicates, for example, 4 replicates. Relative quantitation of the mRNA is determined by the difference in threshhold cycles between the internal control and the gene of interest. In an embodiment of the invention, quantitative PCR is performed using amplification, reporting agents and instruments such as those supplied commercially by Applied Biosystems (Foster City, Calif.). Given a defined efficiency of amplification of target transcripts, the point (e.g., cycle number) that signal from amplified target template is detectable may be directly related to the amount of specific message transcript in the measured sample. Similarly, other quantifiable signals such as fluorescence, enzyme activity, disintegrations per minute, absorbance, etc., when correlated to a known concentration of target templates (e.g., a reference standard curve) or normalized to a standard with limited variability can be used to quantify the number of target templates in an unknown sample.
Specific RNAs are amplified using message specific primers or random primers. […]

[6] = system: IL1A, IL1B, TNF, IFNG and IL10; assay: Acute Inflammation Index from blood of a single patient treated for optic neuritis (FIG. 2); assay type: in vivo, human; settings: single patient with optic neuritis
Description: as §2

[7] = system: IL1B; assay: Whole blood response to E. coli filtrate alone and with polymyxin B (FIG. 34); assay type: cell-based, human; settings: polymyxin B added to E. coli filtrate
Description: FIGS. 27 through 41 illustrate the use of gene expression panels in early identification and monitoring of infectious disease. These figures plot the response, in expression products of the genes indicated, in whole blood, to the administration of various infectious agents or products associated with infectious agents. In each figure, the gene expression levels are “calibrated”, as that term is defined herein, in relation to baseline expression levels determined with respect to the whole blood prior to administration of the relevant infectious agent. In this respect the figures are similar in nature to various figures of our below-referenced patent application WO 01/25473 (for example, FIG. 15 therein). The concentration change is shown ratiometrically, and the baseline level of 1 for a particular gene locus corresponds to an expression level for such locus that is the same, monitored at the relevant time after addition of the infectious agent or other stimulus, as the expression level before addition of the stimulus. Ratiometric changes in concentration are plotted on a logarithmic scale. Bars below the unity line represent decreases in concentration and bars above the unity line represent increases in concentration, the magnitude of each bar indicating the magnitude of the ratio of the change. […]
The responses were monitored at 2, 6, and 24 hours after administration. […]

[8] = 10 stable rheumatoid arthritis patients

Compound: Enbrel
- patients with inflammation index in the normal range [1, 8]: 80%
- inflammation index compared to normal [1]: comes much closer to normal

Compound: Remicade: another TNF inhibitor
- association with infections in studies [2]: associated with serious infections in some subjects
- inflammation index ([3]; 24 hours after the first treatment): returned to the normal range
- inflammation index ([3]; just prior to the second dose): elevated
- inflammation index ([3]; prior to the third dose): in the normal range
- abnormally low inflammation index in two of the patients [1, 8]: suggesting an immunosuppressive response
- inflammation index compared to normal [1]: all but one of the patients being treated with Remicade have an inflammation index at or below normal

Compound: C[C@]12C=CC(=O)C=C1CC[C@@H]1[C@@H]2C(=O)C[C@@]2(C)[C@H]1CC[C@]2(O)C(=O)CO [prednisone]
- expression of inflammation-related gene loci relative to baseline sample ([4]; 2 hr post single 60 mg oral dose): decreased expression of most of inflammation-related gene loci
- expression of inflammation-related gene loci relative to baseline sample ([4]; 24 hr post single 60 mg oral dose, loci with reduced expression at 2 hours): elevated gene expression levels
- gene expression of the 5 loci in relation to t=0 ([5]; 24 hours post administration): inhibitory effect of the prednisone is no longer apparent
- loci at which gene expression is higher than at t=0 (rebound effect) ([5]; 24 hours post administration): 3 of the 5 loci
- gene expression of the 5 loci in relation to t=0 ([5]; two hours after single dose): dramatically reduced gene expression
- acute inflammation index ([6]; oral prednisone at 60 mg per day tapered to 10 mg per day): goes up

Compound: CN(Cc1cnc2nc(N)nc(N)c2n1)c1ccc(C(=O)N[C@@H](CCC(=O)O)C(=O)O)cc1 [methotrexate]
- inflammation index compared to normal [1]: elevated compared to normal

Compound: polymyxin B
- effect on the response of IL1B locus to E. coli filtrate [7]: did not affect the response

Compound: C[C@H]1C[C@@H]2[C@H]([C@@H](O)C[C@@]3(C)[C@H]2CC[C@]3(O)C(=O)COC(=O)CCC(=O)O)[C@@]2(C)C=CC(=O)C=C12 [solumedrol]
- acute inflammation index ([6]; treatment with IV solumedrol at 1 gram per day): falls rapidly
